What was measured:
[1] = Refractive index, Abbe refractometer; assay type: physicochemical
Protocol: (§1) The densities of the ionic liquids […] were determined at 23° C. by placing 2.0 mL of the ionic liquid in a 2.0 mL volumetric tube and weighing by difference. The melting points of the ionic liquids were determined using a Perkin Elmer Pyris 1 Differential Scanning Calorimeter (Boston, Mass.). Typical methods involved using a 10° C./min temperature ramp to determine and identify the first and second order thermal transitions. […] For solid compounds, the melting points were verified using a capillary melting point apparatus. Refractive index measurements were conducted at 23° C. using a Bausch & Lomb Abbe-3L refractometer.

[2] = Density by weighing 2.0 mL of ionic liquid; assay type: physicochemical
Protocol: as §1

[3] = Surface tension, DuNuoy tensiometer; assay type: physicochemical; details: room temperature (23° C.)
Protocol: Surface tension values were measured at room temperature (23° C.) using a Model 20 DuNuoy Tensiometer (Fisher Scientific, Fair Lawn, N.J.) equipped with a platinum-iridium ring with a mean circumference of 5.940 cm and a ring/wire radius of 53.21.

[4] = Solvation interaction parameters by inverse gas-liquid chromatography (Abraham model); assay type: physicochemical
Protocol: The preparation of the capillary columns for inverse gas-liquid chromatographic analysis was performed using a previously described procedure. All capillary columns had efficiencies between 2100 to 2500 plates/meter. Characterization of the capillary columns and probe molecule descriptions are listed in supplemental information. Multiple linear regression analysis (MLRA) and statistical calculations were performed using the program Analyse-it (Microsoft, USA).
Solvation Characteristics. We have previously reported that the Abraham solvation model, a linear free energy approach that utilizes inverse gas-liquid chromatography to describe the solvation properties of a liquid, can be used to characterize room temperature ionic liquids. Described by equation 1, the model provides the so-called “interaction parameters” (r, s, a, b, l) by using multiple linear regression analysis to fit the retention factor (k, determined chromatographically) to the solute descriptors (R2, π2^Hα2H, β2^H, log L^16) for a wide variety of probe solute molecules. […]
Previously we characterized a large number of room temperature ionic liquids in terms of multiple solvation interactions using the solvation parameter model, shown in equation log k=c+rR2+sπ2^H+aα2^H+bβ2^H+l log L^16 [3] This approach utilizes inverse gas-liquid chromatography and allows the use of a large number of probe molecules to deconvolute solute retention in terms of the type and magnitude of individual solvation interactions. The solute descriptors (R2, π2^H, α2^H, .β2^H, log L^16) from Equation 3 are obtained from the literature for many probe molecules containing a variety of functional groups. The retention factor is determined chromatographically. The solute descriptors and retention factors are subjected to multiple linear regression analysis to obtain the interaction parameter coefficients (r, s, a, b, l), which ultimately characterize the stationary phase: r is the ability of the diionic liquid containing-stationary phase to interact with .π0 and n electrons of the solute, s is a measure of the dipolarity/polarizability of the diionic liquid containing-stationary phase, a defines the diionic liquid containing-stationary phase hydrogen bond basicity, b is a measure of the hydrogen bond acidity, and l refers to the ability of the diionic liquid containing-stationary phase to separate adjacent members of a homologous series.
Test solutes used to determine interaction parameters and solvation thermodynamics were dissolved in dichloromethane. […] Split injection and flame ionization detection were utilized with injection and detection temperatures of 250° C. Helium was used as the carrier gas with a column inlet pressure of 3.1 psi and flow rate of 1.0 mL/min. Methane was used to determine the dead volume of the column. Multiple linear regression analysis and statistical calculations were performed using the program Analyze-it (Microsoft).

[5] = Thermal stability of thin film in fused silica capillary, flame ionization detection; assay type: physicochemical
Protocol: Thermal stabilities were measured by immobilizing an approximate 0.15-0.20 microns film of the ionic liquid on the inner wall of a fused silica capillary. The capillary was then heated slowly in an oven and a very sensitive flame ionization detector (or mass spectrometer) used to detect any volatilization or decomposition of the ionic liquid. There are several advantages of using this set-up to measure the thermal stabilities of ionic liquids. The thermal stability is measured in the absence of oxygen by purging the capillary with a continuous flow of an inert gas such as helium, hydrogen, or nitrogen. […] Finally, this approach can use mass spectrometry detection to determine the likely volatilization/decomposition products.

[6] = Miscibility/solubility in heptane and water
Description: The miscibility/solubility of all ionic liquids in both heptane and water are indicated as well.
The solubility behavior of all thirty-nine geminal dicationic ionic liquids in water and heptane also was explored.

[7] = Solubility assay of N-methyl-D-glucamine in solvents; assay type: physicochemical
Description: The mechanism for the transformation of N-methyl-D-glucamine into a quaternary ammonium compound is a double nucleophilic substitution with an alkyl halide (FIG. 57). However, the first problem the inventors herein encountered with this approach was the lack of an appropriate solvent.

## 1,9-di(2,3-dimethylimidazolium)nonane di-tetrafluoroborate [C9(m2im)2-BF4]
[1]; 23° C., Tables 1 and 2
  Refractive Index: 1.456
[2]; 23° C., Tables 1 and 2
  Density: 1.31 g/mL
[3]
  Surface Tension: 58.1 dynes/cm

## C[N+]1(CCCCCCCCC[N+]2(C)CCCC2)CCCC1.O=S(=O)([N-]S(=O)(=O)C(F)(F)F)C(F)(F)F.O=S(=O)([N-]S(=O)(=O)C(F)(F)F)C(F)(F)F [C9(mpy)2-NTf2, 1,9-di(methylpyrrolidinium)nonane di-bis[(trifluoromethyl)sulfonyl]imidate]
[4]; 40° C.
  Interaction parameter a (hydrogen bond basicity): 1.98
  Interaction parameter b (hydrogen bond acidity): 0.32
  Interaction parameter c: −2.83
  Interaction parameter l (dispersion forces): 0.62
  Interaction parameter r (interaction via nonbonding and π-electrons): 0.27
  Interaction parameter s (dipolarity/polarizability): 1.71
[4]; 70° C.
  Interaction parameter a (hydrogen bond basicity): 1.65
  Interaction parameter b (hydrogen bond acidity): 0.35
  Interaction parameter c: −2.85
  Interaction parameter l (dispersion forces): 0.48
  Interaction parameter r (interaction via nonbonding and π-electrons): 0.34
  Interaction parameter s (dipolarity/polarizability): 1.52
[4]; 100° C.
  Interaction parameter a (hydrogen bond basicity): 1.48
  Interaction parameter b (hydrogen bond acidity): 0.15
  Interaction parameter c: −2.99
  Interaction parameter l (dispersion forces): 0.42
  Interaction parameter r (interaction via nonbonding and π-electrons): 0.23
  Interaction parameter s (dipolarity/polarizability): 1.49
[5]
  stable liquid range: about −4 °C to >400 °C

## Cn1cc[n+](CCCCCCCCCCCC[n+]2ccn(C)c2)c1.[Br-].[Br-] [C12(mim)2-Br, 1,12-di(3-methylimidazolium)dodecane di-bromide]
[2]; 23° C., Tables 1 and 2
  Density: 1.27 g/mL
[3]
  Surface Tension: 57.9 dynes/cm
[6]
  Miscibility with Water: Miscible

## C=Cn1cc[n+](CCCCCCCCCCCC)c1.O=S(=O)([N-]S(=O)(=O)C(F)(F)F)C(F)(F)F [Monomer 3, 1-vinyl-3-dodecylimidazolium bis[(trifluoromethane)sulfonyl]imidate]
[1]; monomers/crosslinkers, Table A
  Refractive Index: 1.448
[2]; monomers/crosslinkers, Table A
  Density: 1.23 g/mL

## CNC[C@H](O)[C@@H](O)[C@H](O)[C@H](O)CO [N-methyl-D-glucamine]
[7]
  solubility in acetone, dimethyl formamide, tetrahydrofuran, ethyl acetate, acetonitrile and dichloromethane: insoluble
  solubility in water, dimethylsulfoxide (DMSO): only soluble

Source: US8734673B2, “Boron selective ionic liquids and polymeric ionic liquids, methods of making and methods of use thereof” (The University of Toledo, priority 2008, dated 2014)
